{
  "source": "paper PMC6832134",
  "about": "“Discovery of Novel Integrase Inhibitors Acting outside the Active Site Through High-Throughput Screening” (Molecules, 2019)",
  "key": {"[1]": {"target": "T1, HIV-1 integrase (Human immunodeficiency virus type 1 group M subtype B, UniProt P12497)", "T1 construct": "250 nM of recombinant HIV-1 integrase; made in house; host or cells: E. coli RosettaII", "assay": "Electrochemiluminescent integrase strand transfer assay (BioVeris), high-throughput screen", "format": "biochemical", "conditions": "single dose 10 µM; read-out: inhibition of IN ST activity", "protocol": "To enable a high-throughput screening, we used the ST assay developed by BioVeris. This proprietary plate-based assay measured stand transfer using electrochemiluminescent technology. First, we validated the assay using HIV-1 IN in the presence of DMSO, or increasing concentrations of a known inhibitor, MA-DKA (also known as 118-D-24, Figure 1A). […] Next, we used MA-DKA as a control in every test plate and screened a large library of molecules. Overall, 3095 compounds were tested as part of the NCI Developmental Therapeutics Program’s small molecule plated sets from the Open Chemical Repository Collection. […] A single dose testing (10 µM) enabled the identification of 130 molecules that inhibited ST by over 50% (light dashed line, Figure 1A). […] NSC153308 is a 2-phenacylsulfanylacetic acid that resembles the diketo acid chemotype. On the other side, NSC119889 is a xanthene derivative similar to V-165 [6]. […] However, the purpose of this study was to identify a new chemotype that might act on IN via a novel mechanism, distinct from known active site inhibitors. Accordingly, we retrieved the chemical structure of the 130 hits and looked for a chemical pattern different from that of conventional strand transfer inhibitors.\nThis electrochemiluminescent plate-based assay was performed using a BioVeris M-SERIES Analyzer (Gaithersburg, MD, USA). DNA substrates were obtained from BioVeris and used according to the manufacturer’s recommendations. Briefly, a biotinylated donor DNA was incubated for 30 min at 37 °C in the presence of 250 nM of recombinant HIV-1 integrase. Complexes were bound to paramagnetic streptavidin-coated beads (M-280 Dynabeads). After addition of the drug, the integration reaction was initiated by addition of a ruthenium-labeled target DNA. The reaction was carried out for 60 min at 37 °C, before reading on the BioVeris M-SERIES Analyzer."}, "[2]": {"target": "T2, HIV-1 IN (WT) (Human immunodeficiency virus type 1 group M subtype B, UniProt P12497)", "T2 construct": "250 nM of recombinant HIV-1 integrase; made in house; host or cells: E. coli RosettaII", "assay": "Gel-based IN strand transfer assay, WT enzyme", "format": "biochemical", "protocol": "(§1) IN reactions were carried out by adding drugs or an equivalent volume of 100% DMSO (dimethyl sulfoxide, used as the drug solvent) to a mixture of 20 nM duplex DNA (21T/21B) and 400 nM IN in 50 mM MOPS pH 7.2, 7.5 mM MgCl2, and 14 mM 2-mercaptoethanol. Reactions were performed at 37 °C for 2 h and quenched by addition of an equal volume of loading buffer [formamide containing 1% SDS (sodium dodecyl sulfate), 0.25% bromophenol blue, and xylene cyanol]. Reaction products were separated in 16% polyacrylamide denaturing sequencing gels. Dried gels were visualized using a Typhoon 8600 (GE Healthcare, Piscataway, NJ, USA). Densitometric analyses were performed using the ImageQuant 5.1 software from GE Healthcare. Data analyses (linear regression, IC50 determination, and standard deviation) were performed using Prism 6.05 software from GraphPad."}, "[3]": {"target": "T3, HIV-1 IN mutant G140S/Q148H (Human immunodeficiency virus type 1 group M subtype B, UniProt P12497, G1287S/Q1295H)", "T3 construct": "RAL-resistant HIV-1 mutant integrases; made in house; host or cells: E. coli RosettaII", "assay": "Gel-based IN strand transfer assay, G140S/Q148H mutant", "format": "biochemical", "protocol": "as §1"}, "[4]": {"target": "T4, HIV-1 IN mutant Y143R (Human immunodeficiency virus type 1 group M subtype B, UniProt P12497, Y1290R)", "T4 construct": "RAL-resistant HIV-1 mutant integrases; made in house; host or cells: E. coli RosettaII", "assay": "Gel-based IN strand transfer assay, Y143R mutant", "format": "biochemical", "protocol": "as §1"}, "[5]": {"target": "T5, HIV-1 IN mutant N155H (Human immunodeficiency virus type 1 group M subtype B, UniProt P12497, N1302H)", "T5 construct": "RAL-resistant HIV-1 mutant integrases; made in house; host or cells: E. coli RosettaII", "assay": "biochemical", "format": "biochemical", "protocol": "as §1"}, "[6]": {"target": "T6, full-length IN (Human immunodeficiency virus type 1 group M subtype B, UniProt P12497)", "T6 construct": "using full-length IN (1–288), the isolated catalytic core domain (CCD) (51–212); made in house; host or cells: E. coli RosettaII", "assay": "Disintegration reaction, full-length IN", "format": "biochemical, HIV-1", "conditions": "branched substrate", "source_text": "(§2) Conventional IN strand transfer inhibitors bind at the interface created by the protein, viral DNA, and two magnesium cations in the catalytic site of the enzyme. Because stilbene disulfonic acid derivatives inhibit both 3′-P and ST with a similar efficiency, they may act outside the IN catalytic site. To determine if IN domains other than the catalytic core domain (CCD) are involved in the inhibitory activity of NSC34931, we tested this compound on disintegration, the only IN-mediated reaction that can be catalyzed by the isolated CCD. Disintegration is equivalent to a reverse-ST reaction (Figure 3A). Using a branched substrate, the WT enzyme as well as the isolated CCD catalyzed disintegration with similar efficiency (Figure 3B). NSC34931 inhibited disintegration catalyzed by the full-length IN at concentrations above 4.1 µM (Figure 3B,C). However, NSC34931 was unable to inhibit disintegration catalyzed by the CCD at concentrations up to 37 µM (Figure 3B,C). These experiments indicate that the N-terminal domain (NTD) and/or the C-terminal domain (CTD) are essential for IN inhibition by NSC34931.\n(§3) Figure 3 Inhibition of the disintegration reaction by NSC34931. (A) Schematic representation of the disintegration reaction. […]"}, "[7]": {"target": "T7, isolated catalytic core domain (CCD) of IN (Human immunodeficiency virus type 1 group M subtype B, UniProt P12497)", "T7 construct": "the isolated catalytic core domain (CCD) (51–212); made in house; host or cells: E. coli RosettaII", "assay": "Disintegration reaction, isolated catalytic core domain", "format": "biochemical, HIV-1", "conditions": "branched substrate", "source_text": "as §2, §3"}},
  "note": "Where two headings read alike, the source gives them in different places.",
  "data": [
    {"smiles": "O=S(=O)(O)c1cc(/N=N/c2cc(S(=O)(=O)O)c3ccccc3c2O)ccc1/C=C/c1ccc(/N=N/c2cc(S(=O)(=O)O)c3ccccc3c2O)cc1S(=O)(=O)O", "note": "[NSC34931]", "values": [
      {"measurement": "inhibition at 10 µM", "setting": "[1]", "result": 77.8, "unit": "%"},
      {"measurement": "activity with Mg2+ or Mn2+ as metal cofactor", "setting": "[2]; data not shown", "result": "equally active"},
      {"measurement": "IC50", "setting": "[2]; gel-based assay, coupled ST, at least three independent experiments, read-out: In Vitro IC50 +/−SD, ST", "result": "180 ± 70", "unit": "nM"},
      {"measurement": "IC50", "setting": "[2]; precleaved substrate (bypassing the 3'-P step), data not shown, read-out: IC50, ST inhibition with precleaved substrate", "result": 230, "unit": "nM"},
      {"measurement": "IC50", "setting": "[3]", "result": 120, "unit": "nM"},
      {"measurement": "IC50", "setting": "[4]", "result": 240, "unit": "nM"},
      {"measurement": "IC50", "setting": "[5]", "result": 160, "unit": "nM"},
      {"measurement": "concentrations inhibiting disintegration", "setting": "[6]", "result": "above 4.1 µM"},
      {"measurement": "concentration up to which disintegration is not inhibited", "setting": "[7]", "result": "> 37", "unit": "µM"}
    ]}
  ]
}
